Patent US4757087A, “Carbacyclin derivatives” (Sankyo Company Limited, priority 1985, dated 1988)

Assays:
[1] = Acute toxicity testing, intravenous; format: in vivo; settings: intravenously, 10 mg per kg of body weight, five rats
aspirin-induced ulcer = test: Effect on aspirin-induced ulcer (Brodie and Chase method); format: in vivo, rats of the Donryu strain (male); settings: orally, rats, 15 min before 100 mg/kg aspirin, 4 h after aspirin
Procedure: According to a method reported by Brodie and Chase [Gastroenterology 53, 604 (1967)], the anti-ulcer effect was determined. Five male rats of the Donryu strain (body weight 170 to 200 g) were used for each of the control and test compound groups. After being fasted for 24 hours, the rats were orally given certain concentrations of the test compounds and 15 minutes later given orally 100 mg/kg of aspirin (Sanko Pharmaceutical Inc). Four hours after the aspirin administration, the stomach was extracted and expanded with 10 ml of 0.5% formalin. An ulcer index was calculated from the total area of ulceration for the rats of the treated and control groups. The inhibition rate was calculated by comparing the ulcer indices of both groups.

[2] = system: blood platelet aggregation; settings: GB 2012265A, U.S. Pat. No. 4,238,414; cited from earlier work
[3] = GB 2012265A, U.S. Pat. No. 4,238,414; cited from earlier work

| Structure (SMILES) | Inhibition Rate (%) (aspirin-induced ulcer; 30 γ/kg (γ = 10^-6 g)) | Inhibition Rate (%) (aspirin-induced ulcer; 100 γ/kg (γ = 10^-6 g)) | further results |
| --- | --- | --- | --- |
| C=CCCCC(C)[C@H](O)/C=C/[C@@H]1[C@H]2C/C(=C/CCCC(=O)O)C[C@H]2C[C@H]1O (stereo partly drawn) [Preparative Example 1, 16-Methyl-20-methylenecarbacyclin] | 95 | 98 | deaths (acute toxicity) [1]: no deaths occurred; Inhibition Rate (%) (aspirin-induced ulcer; 10 γ/kg (γ = 10^-6 g)): 45% |
| C=CCCCC(C)(C)[C@H](O)/C=C/[C@@H]1[C@H]2C/C(=C/CCCC(=O)O)C[C@H]2C[C@H]1O [Preparative Example 3, 16,16-Dimethyl-20-methylenecarbacyclin] | 92 | – | – |
| CC(C)=CCCCC(C)[C@H](O)/C=C/[C@@H]1[C@H]2C/C(=C/CCCC(=O)O)C[C@H]2C[C@H]1O (stereo partly drawn) [Preparative Example 6, 16-Methyl-20-isopropylidenecarbacyclin] | 84 | – | – |
| CCCCC[C@H](O)/C=C/[C@@H]1[C@H]2C/C(=C/CCCC(=O)O)C[C@H]2C[C@H]1O [Reference Compound A, Carbacyclin] | – | 0 | Inhibition Rate (%) (aspirin-induced ulcer; 300 γ/kg (γ = 10^-6 g)): 0%; inhibition of blood platelet aggregation [2]: inhibition of blood platelet aggregation; chemical stability [3]: chemically stable |
| CCC=CC[C@H](O)/C=C/[C@@H]1[C@H]2C/C(=C/CCCC(=O)O)C[C@H]2C[C@H]1O [Reference Compound B, 17,18-Didehydrocarbacyclin] | 15 | 47 | – |
| CC(C)=CCCCC[C@H](O)/C=C/[C@@H]1[C@H]2C/C(=C/CCCC(=O)O)C[C@H]2C[C@H]1O [Reference Compound C, 20-Isopropylidenecarbacyclin] | – | – | Inhibition Rate (%) (aspirin-induced ulcer; 300 γ/kg (γ = 10^-6 g)): 4% |
| CC(C)=CCCC(C)C[C@H](O)/C=C/[C@@H]1[C@H]2C/C(=C/CCCC(=O)O)C[C@H]2C[C@H]1O (stereo partly drawn) [Reference Compound D, 17-Methyl-20-isopropylidenecarbacyclin] | 30 | 98 | – |
